According to patent US9345704B2, “Materials and methods for suppressing and/or treating neurofibroma and related tumors” (Indiana University Research and Technology Corp., priority 2008, dated 2016):
Where a name gives a salt, the structure may show the parent alone.

System: trigeminal plexiform neurofibroma
Experiment: Compassionate use treatment with imatinib mesylate of a child presenting with a plexiform neurofibroma (MRI)
Format: in vivo, human
Description: Plexiform neurofibromas primarily present in infants and young children with NF1 are frequently characterized by rapid growth and invasion into adjacent organs often resulting in impairment of normal organ function. In addition, these tumors have a high likelihood of progressing to malignancy for which there is no cure.

With `Cc1ccc(NC(=O)c2ccc(CN3CCN(C)CC3)cc2)cc1Nc1nccc(-c2cccnc2)n1` [imatinib mesylate, 4-(4-methylpiperazin-1-ylmethyl)-N-[4-methyl-3-(4-(pyridin-3-yl)pyrimidin-2-ylamino)phenyl]-benzamide] the side effects (NF1 patient, 350 mg/m2/dose, treatment for six months) was “no observed side effects”, the “tumor size (coronal MRI)” value (before vs 6 months following treatment) was “profound decrease in tumor size” and the “upper airway (axial MRI)” value (before vs after 6 months of treatment) was “marked improvement with airway enlargement”. The “recurrence of symptoms off treatment” value (off treatment for six months after six months of treatment) was “without a recurrence of symptoms”.
